Test results as given in ChEMBL document CHEMBL3244086, “A new class of antimalarial drugs: derivatives of benzothiopyrans” (J Med Chem, 1978).
The source made the active and inactive calls. The rule behind the calls is not given here.

Key:
Plasmodium berghei [1] = test: Antimalarial activity against Plasmodium berghei infected in mouse assessed as host survival time at 640 mg/kg, sc treated after 3 days of infection (reference value: 6.2 +/- 0.5 days); format: functional
Plasmodium gallinaceum [2] = test: Antimalarial activity against Plasmodium gallinaceum B infected in chick assessed as host survival time at 320 mg/kg, sc treated immediately after infection; format: functional
Mus musculus = test: Toxicity in mouse at 640 mg/kg, sc; format: organism-based; parameters: dose 640 mg/kg, route subcutaneous; conditions: in vivo
Plasmodium berghei [3] = test: Antimalarial activity against Plasmodium berghei infected in mouse assessed as host survival time at 320 mg/kg, sc treated after 3 days of infection (reference value: 6.2 +/- 0.5 days); format: functional
Gallus gallus [4] = test: Toxicity in chick at 320 mg/kg, sc; format: organism-based; parameters: dose 320 mg/kg, route subcutaneous; conditions: chicken, in vivo
Gallus gallus [5] = test: Toxicity in chick at 160 mg/kg, sc; format: organism-based; parameters: dose 160 mg/kg, route subcutaneous; conditions: chicken, in vivo
Plasmodium gallinaceum [6] = test: Antimalarial activity against Plasmodium gallinaceum B infected in chick assessed as host survival time at 80 mg/kg, sc treated immediately after infection; format: functional, organism-based; parameters: dose 80 mg/kg
Plasmodium gallinaceum [7] = test: Antimalarial activity against Plasmodium gallinaceum B infected in chick assessed as host survival time at 160 mg/kg, sc treated immediately after infection; format: functional
Plasmodium gallinaceum [8] = test: Antimalarial activity against Plasmodium gallinaceum B infected in chick assessed as host survival time at 120 mg/kg, sc treated immediately after infection; format: functional, organism-based; parameters: dose 120 mg/kg
Plasmodium berghei [9] = test: Antimalarial activity against Plasmodium berghei infected in mouse assessed as host cured at 320 to 640 mg/kg, sc treated after 3 days of infection; format: functional, organism-based
Plasmodium berghei [10] = test: Antimalarial activity against Plasmodium berghei infected in mouse assessed as host survival time at 160 mg/kg, sc treated after 3 days of infection (reference value: 6.2 +/- 0.5 days); format: functional; conditions: route subcutaneous
Gallus gallus [11] = test: Toxicity in chick at 120 mg/kg, sc; format: organism-based; parameters: dose 120 mg/kg, route subcutaneous; conditions: chicken, in vivo

## N=C(N)N/N=c1\cc(-c2ccccc2)sc2ccc(Cl)cc12
Plasmodium berghei [1]; route subcutaneous
  MST: 6.2 days

## Clc1ccc2sc(-c3ccccc3)c/c(=N\CCCCC3CCCCC3)c2c1
Plasmodium berghei [1]
  MST: inactive
Plasmodium gallinaceum [2]
  MST: inactive

## Cl.OCCN1CCN(CCCC/N=c2\cc(-c3ccc(Cl)cc3)sc3ccc(Cl)cc23)CC1
Plasmodium berghei [1]; route subcutaneous
  MST: 7.9 days
Mus musculus
  Activity: Toxic
Plasmodium berghei [3]; route subcutaneous
  MST: 7.4 days
Gallus gallus [4]
  Activity: Toxic

## CCN(CC)CCCC(C)/N=c1\cc(-c2ccc(Cl)cc2)sc2ccccc12.Cl (centres undefined)
Gallus gallus [5]
  Activity: Toxic
Plasmodium gallinaceum [6]
  MST: inactive
Mus musculus
  Activity: Toxic
Plasmodium berghei [3]
  MST: inactive

## Clc1ccc2sc(-c3ccccc3)c/c(=N\C3CN4CCC3CC4)c2c1 (centres undefined)
Plasmodium berghei [1]
  MST: inactive
Plasmodium gallinaceum [2]
  MST: inactive

## CN1CCN(CCC/N=c2\cc(-c3ccccc3)sc3ccc(Cl)cc23)CC1
Plasmodium gallinaceum [2]
  MST: inactive
Plasmodium berghei [3]; route subcutaneous
  MST: 7.3 days

## Clc1ccc(-c2c/c(=N\Cc3ccccn3)c3cc(Cl)ccc3s2)cc1
Plasmodium gallinaceum [2]
  MST: inactive
Plasmodium berghei [3]
  MST: inactive

## CCN(CC)CCCC(C)/N=c1\cc(-c2ccc(Cl)cc2)sc2ccc(Br)cc12.Cl (centres undefined)
Plasmodium gallinaceum [7]; route subcutaneous
  MST: 5 days
Plasmodium berghei [3]
  MST: inactive

## NCCC/N=c1\cc(-c2ccccc2)sc2ccc(Cl)cc12
Plasmodium berghei [1]
  MST: inactive

## CCN(CC)CCCC(C)/N=c1\cc(-c2ccc(Cl)c(Cl)c2)sc2ccc(Br)cc12 (centres undefined)
Plasmodium gallinaceum [7]
  MST: inactive
Plasmodium berghei [3]
  MST: inactive

## CCN(CC)CCCC(C)/N=c1\cc(C23CC4CC(CC(C4)C2)C3)sc2ccc(Cl)cc12.Cl (centres undefined)
Plasmodium berghei [1]
  MST: inactive
Gallus gallus [5]
  Activity: Toxic
Plasmodium gallinaceum [7]
  MST: inactive

## CN(C)CCC/N=c1\cc(-c2ccccc2)sc2ccc(Br)cc12.Cl
Plasmodium berghei [3]; route subcutaneous
  MST: 12.6 days

## CN(C)CCC/N=c1\cc(-c2ccccc2)sc2ccc(Cl)cc12.Cl.O
Plasmodium berghei [1]; route subcutaneous
  MST: 13.6 days

## CCN(CC)CCCC(C)/N=c1\cc(-c2ccc(Cl)c(Cl)c2)sc2ccc(F)cc12 (centres undefined)
Plasmodium berghei [1]
  MST: inactive
Plasmodium gallinaceum [8]
  MST: inactive

## CN1CCCC1CC/N=c1\cc(-c2ccccc2)sc2ccc(Cl)cc12 (centres undefined)
Plasmodium berghei [3]; route subcutaneous
  MST: 7 days

## CCN(CC)CCCC(C)/N=c1\cc(-c2ccc(Cl)c(Cl)c2)sc2ccc(OC)cc12 (centres undefined)
Plasmodium gallinaceum [8]
  MST: inactive

## CCN(CC)CCCC(C)/N=c1\cc(-c2ccc(F)cc2)sc2ccc(Br)cc12.Cl (centres undefined)
Plasmodium berghei [1]; route subcutaneous
  MST: 10.1 days
Plasmodium gallinaceum [7]
  MST: inactive
Plasmodium berghei [3]; route subcutaneous
  MST: 6.9 days
Gallus gallus [4]
  Activity: Toxic

## Cl.Clc1ccc2sc(-c3ccccc3)c/c(=N\CCCN3CCOCC3)c2c1
Plasmodium berghei [1]; route subcutaneous
  MST: 6.8 days

## O=C(NCCC/N=c1\cc(-c2ccccc2)sc2ccc(Cl)cc12)OCc1ccccc1
Plasmodium berghei [1]
  MST: inactive

## CN1CCN(CCC/N=c2\cc(-c3ccc(Cl)cc3)sc3ccc(Br)cc23)CC1
Plasmodium gallinaceum [7]
  MST: inactive
Plasmodium berghei [3]
  MST: inactive

## OCCN1CCN(CC/N=c2\cc(-c3ccc(Cl)cc3)sc3ccc(Cl)cc23)CC1
Plasmodium berghei [1]
  MST: inactive
Plasmodium gallinaceum [2]
  MST: inactive

## CN(C)CCC/N=c1\cc(-c2ccc(Cl)cc2)sc2ccccc12.Cl
Mus musculus
  Activity: Toxic
Plasmodium berghei [9]
  Activity: Active

## CCN(CC)CCCC(C)/N=c1\cc(-c2ccc(Cl)cc2)sc2ccc(Cl)cc12.Cl (centres undefined)
Plasmodium berghei [1]
  MST: inactive
Plasmodium gallinaceum [2]; route subcutaneous
  MST: 4.7 days

## CN1CCN(CCC/N=c2\cc(-c3ccc(Cl)cc3)sc3ccccc23)CC1
Plasmodium berghei [3]; route subcutaneous
  MST: 6.9 days

## Clc1ccc2sc(-c3ccccc3)c/c(=N\C34CC5CC(CC(C5)C3)C4)c2c1
Plasmodium berghei [1]
  MST: inactive
Plasmodium gallinaceum [2]
  MST: inactive

## CN(C)CCC/N=c1\cc(-c2ccc(Cl)cc2)sc2ccc(Cl)cc12
Plasmodium gallinaceum [7]; route subcutaneous
  MST: 3.4 days
Plasmodium gallinaceum [2]; route subcutaneous
  MST: 4.4 days
Plasmodium berghei [10]
  MST: 7 days
Plasmodium berghei [3]; route subcutaneous
  MST: 9.8 days
Plasmodium berghei [9]
  Activity: Active

## Cl.Clc1ccc(-c2c/c(=N\CCCN3CCCCC3)c3cc(Cl)ccc3s2)cc1
Plasmodium berghei [1]
  MST: inactive
Plasmodium gallinaceum [2]; route subcutaneous
  MST: 5.2 days

## CCN(CC)CCCC(C)/N=c1\cc(-c2ccc(F)cc2)sc2ccc(F)cc12.Cl (centres undefined)
Plasmodium berghei [1]
  MST: inactive
Gallus gallus [11]
  Activity: Toxic

## Clc1ccc2sc(-c3ccccc3)c/c(=N\CCN3CCCC3)c2c1
Plasmodium berghei [1]
  MST: inactive

## OCCN1CCN(CCCC/N=c2\cc(C34CC5CC(CC(C5)C3)C4)sc3ccc(Br)cc23)CC1
Gallus gallus [11]
  Activity: Toxic
Plasmodium gallinaceum [8]
  MST: inactive
Plasmodium berghei [3]
  MST: inactive

## Clc1ccc(-c2c/c(=N\CCCCC3CCCCC3)c3cc(Cl)ccc3s2)cc1
Plasmodium berghei [1]
  MST: inactive
Plasmodium gallinaceum [2]
  MST: inactive

## CN1CCN(CCC/N=c2\cc(-c3ccc(Cl)cc3)sc3ccc(Cl)cc23)CC1
Plasmodium gallinaceum [2]; route subcutaneous
  MST: 3.4 days
Plasmodium berghei [10]
  MST: 6.2 days
Plasmodium berghei [3]; route subcutaneous
  MST: 11.2 days
Plasmodium berghei [9]
  Activity: Active

## CN1CCCC1CC/N=c1\cc(-c2ccc(Cl)c(Cl)c2)sc2ccc(F)cc12 (centres undefined)
Plasmodium berghei [1]
  MST: inactive
Plasmodium gallinaceum [2]
  MST: inactive

## Clc1ccc(-c2c/c(=N\CCCN3CCOCC3)c3cc(Br)ccc3s2)cc1Cl
Plasmodium berghei [1]; route subcutaneous
  MST: 10.5 days
Plasmodium gallinaceum [2]
  MST: inactive

## CCN(CC)CCCC(C)/N=c1\cc(-c2ccccc2)sc2ccc(Cl)cc12.Cl (centres undefined)
Plasmodium berghei [10]
  MST: 8 days
Plasmodium berghei [3]; route subcutaneous
  MST: 10.6 days
Gallus gallus [4]
  Activity: Toxic
Plasmodium berghei [9]
  Activity: Active

## Clc1ccc2sc(-c3ccccc3)c/c(=N\c3cccnc3)c2c1
Plasmodium gallinaceum [2]
  MST: inactive
Plasmodium berghei [3]
  MST: inactive

## CCN(CC)CCCC(C)/N=c1\cc(-c2ccccc2)sc2ccc(Br)cc12.Cl (centres undefined)
Plasmodium gallinaceum [7]
  MST: inactive
Plasmodium berghei [10]
  MST: 9.5 days
Plasmodium berghei [9]
  Activity: Active

## CCN(CC)CCC/N=c1\cc(-c2ccccc2)sc2ccc(Cl)cc12.NS(=O)(=O)O
Plasmodium berghei [1]; route subcutaneous
  MST: 10.3 days
Plasmodium gallinaceum [2]
  MST: inactive
Plasmodium berghei [3]; route subcutaneous
  MST: 9.1 days

## CN(C)CC/N=c1\cc(-c2ccccc2)sc2ccc(Cl)cc12
Plasmodium berghei [1]
  MST: inactive
